# Data taken from patent publication US8143374B2, “Polypeptide derivatives of parathyroid hormone (PTH)” (The General Hospital Corporation, priority 2006, dated 2012).
# Biological target: T1, endogenous PTHR in ROS 17/2.8 cells (Rattus norvegicus, UniProt P25961)
# T1 construct: ROS 17/2.8 cells are rat osteosarcoma cells and express the endogenous PTHR; endogenous in cells; host or cells: ROS 17/2.8 rat osteosarcoma cells
# T1 sequence (P25961 27-591): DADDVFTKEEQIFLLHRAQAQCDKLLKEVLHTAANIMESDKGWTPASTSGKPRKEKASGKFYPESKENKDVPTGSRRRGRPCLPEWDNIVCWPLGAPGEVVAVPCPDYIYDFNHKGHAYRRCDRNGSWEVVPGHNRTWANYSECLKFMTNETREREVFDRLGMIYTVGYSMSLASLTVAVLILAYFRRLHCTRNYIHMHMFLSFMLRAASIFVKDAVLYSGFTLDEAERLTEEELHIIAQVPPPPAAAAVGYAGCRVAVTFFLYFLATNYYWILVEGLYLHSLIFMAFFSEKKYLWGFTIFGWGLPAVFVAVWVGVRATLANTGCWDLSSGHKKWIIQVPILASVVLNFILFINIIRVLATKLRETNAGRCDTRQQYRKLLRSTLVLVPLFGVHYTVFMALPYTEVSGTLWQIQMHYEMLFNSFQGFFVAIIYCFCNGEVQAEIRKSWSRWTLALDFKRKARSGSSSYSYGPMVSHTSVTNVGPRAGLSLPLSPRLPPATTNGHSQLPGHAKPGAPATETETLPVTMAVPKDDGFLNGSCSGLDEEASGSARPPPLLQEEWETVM
# Assay: Stimulation of intracellular cAMP in ROS 17/2.8 cells
# Assay type: cell-based
# Description: Cell Culture—Cells were cultured at 37° C. in a humidified atmosphere containing 5% CO2 in Dulbecco's modified Eagle's medium (DMEM), supplemented with 10% fetal bovine serum (HyClone, Logan Utah), 100 units/ml penicillin G, and 100 ug/ml streptomycin penicillin G/streptomycin (Invitrogen Corp. Carlsbad, Calif.). For binding and cAMP studies performed with the intact PTHR, the HKRK-B7 and ROS 17/2.8 cell lines were used. HKRK-B7 cells are derived from the porcine kidney cell line LLC-PK1 and express, via stable DNA transfection, the wild-type human PTHR at an approximate surface density of 950,000 PTH-binding sites per cell. ROS 17/2.8 cells are rat osteosarcoma cells and express the endogenous PTHR at an approximate surface density of 80,000 PTH-binding sites per cell. The cells were plated and assayed in 24-well plates.
# Stimulation of intracellular cAMP and inositol phosphate—The capacities of the ligands to stimulate adenylyl cyclase activity were assessed in intact ROS 17/2.8 cells, as described (Shimizu, M., (2001) Endocrinology 142:3068-3074). […] The cAMP in the thawed lysate was then quantified by radioimmuno assay. The stimulation of production of inositol phosphates (IP1+IP2+IP3) was assessed in COS-7 cells transfected with the intact human PTHR, as described previously (Shimizu, M., (2001) Endocrinology 142:3068-3074). […]
sequence,measurement,value
SVSEIQLMHNLGKHLNSMEEVEWLRKKLQDV [Arg^20→Glu],EC50,0.059 ± 0.031 µM
